Values quoted from earlier work, collected in publication PMC8178945 (Computational and Structural Biotechnology Journal, 2021).
pKd: −log10 of the molar value.

Molecular target: 3CL^Pro
Conditions: read-out: KD from isothermal titration calorimetry; previously obtained

O=c1cc(-c2ccccc2)oc2cc(O)c(O)c(O)c12 [baicalein]
pKd: 5.39
